From PMC8745330, “Aromatic Sulfonamides including a Sulfonic Acid Tail: New Membrane Impermeant Carbonic Anhydrase Inhibitors for Targeting Selectively the Cancer-Associated Isoforms” (International Journal of Molecular Sciences, 2021)
Where a name gives a salt, the structure may show the parent alone.

Tests used:
hCA I = target: T1, hCA I (Homo sapiens, UniProt P00915); assay: stopped flow CO2 hydrase assay, CA I; format: biochemical; conditions: mean from 3 different assays, errors ±5–10%
T1 construct: made in house
T1 sequence (P00915 whole entry): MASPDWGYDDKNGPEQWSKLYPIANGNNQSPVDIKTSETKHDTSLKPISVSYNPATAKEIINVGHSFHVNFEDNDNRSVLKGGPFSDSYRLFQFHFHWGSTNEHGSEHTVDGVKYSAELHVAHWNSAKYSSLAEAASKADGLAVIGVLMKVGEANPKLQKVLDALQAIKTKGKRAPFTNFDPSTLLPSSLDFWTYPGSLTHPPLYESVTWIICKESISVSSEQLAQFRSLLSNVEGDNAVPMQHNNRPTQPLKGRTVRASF
Method: (§1) An Applied Photophysics stopped-flow instrument was used for assaying the CA catalyzed CO2 hydration activity. Phenol red (at a concentration of 0.2 mM) was used as an indicator, working at the absorbance maximum of 557 nm, with 20 mM HEPES (pH 7.5) as buffer, and 20 mM Na2SO4 (for maintaining constant the ionic strength), following the initial rates of the CA-catalyzed CO2 hydration reaction for a period of 10–100 s. The CO2 concentrations ranged from 1.7 to 17 mM for the determination of the kinetic parameters and inhibition constants. For each inhibitor, at least six traces of the initial 5–10% of the reaction were used for determining the initial velocity. The uncatalyzed rates were determined in the same manner and subtracted from the total observed rates. Stock solutions of inhibitor (0.1 mM) were prepared in distilled–deionized water, and dilutions up to 0.01 nM were done thereafter with the assay buffer. Inhibitor and enzyme solutions were preincubated together for 45 min at room temperature prior to assay in order to allow for the formation of the E–I complex. The inhibition constants were obtained by non-linear least-squares methods using PRISM 3 and the Cheng–Prusoff equation, as reported earlier, representing the mean from at least three different determinations. […] All CA isoforms were recombinant ones obtained in-house, as reported earlier.

hCA II = target: T2, hCA II (Homo sapiens, UniProt P00918); assay: stopped flow CO2 hydrase assay, CA II; format: biochemical; conditions: mean from 3 different assays, errors ±5–10%
T2 construct: made in house
Method: as §1

hCA IV = target: T3, hCA IV (Homo sapiens, UniProt P22748); assay: stopped flow CO2 hydrase assay, CA IV; format: biochemical; conditions: mean from 3 different assays, errors ±5–10%
T3 construct: made in house
T3 sequence (P22748 19-312): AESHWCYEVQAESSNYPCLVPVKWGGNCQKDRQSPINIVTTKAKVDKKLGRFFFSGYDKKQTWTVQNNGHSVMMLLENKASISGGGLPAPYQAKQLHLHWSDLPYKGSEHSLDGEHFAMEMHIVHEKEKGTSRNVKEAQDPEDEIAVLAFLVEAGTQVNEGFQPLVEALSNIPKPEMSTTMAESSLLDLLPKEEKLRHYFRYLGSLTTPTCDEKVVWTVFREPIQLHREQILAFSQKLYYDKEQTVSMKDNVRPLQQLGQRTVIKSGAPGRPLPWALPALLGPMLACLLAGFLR
Method: as §1

hCA IX = target: T4, hCA IX (Homo sapiens, UniProt Q16790); assay: stopped flow CO2 hydrase assay, CA IX; format: biochemical; conditions: for Selectivity index (SI) CA I/CA IX / Selectivity index (SI) CA II/CA IX: ratio between KI values; for Ki: stopped flow CO2 hydrase assay, mean from 3 different assays, errors ±5–10%
T4 construct: made in house
Method: as §1

hCA XII = target: T5, hCA XII (Homo sapiens, UniProt O43570); assay: stopped flow CO2 hydrase assay, CA XII; format: biochemical; conditions: for Selectivity index (SI) CA I/CA XII / Selectivity index (SI) CA II/CA XII: ratio between KI values; for Ki: stopped flow CO2 hydrase assay, mean from 3 different assays, errors ±5–10%
T5 construct: made in house
T5 sequence (O43570 25-354): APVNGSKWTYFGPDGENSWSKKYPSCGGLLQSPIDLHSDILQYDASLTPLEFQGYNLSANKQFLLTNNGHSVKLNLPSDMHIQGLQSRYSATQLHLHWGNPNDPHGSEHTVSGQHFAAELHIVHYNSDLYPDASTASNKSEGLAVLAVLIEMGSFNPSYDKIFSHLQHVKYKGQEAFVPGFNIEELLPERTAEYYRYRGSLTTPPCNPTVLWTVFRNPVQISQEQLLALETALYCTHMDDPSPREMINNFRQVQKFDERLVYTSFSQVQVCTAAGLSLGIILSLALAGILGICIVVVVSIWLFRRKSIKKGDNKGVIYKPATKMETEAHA
Method: as §1

Row | melting point | Ki (hCA I) | Ki (hCA II) | Ki (hCA IV) | Selectivity index (SI) CA I/CA IX (hCA IX) | Selectivity index (SI) CA II/CA IX (hCA IX) | Ki (hCA IX) | Selectivity index (SI) CA I/CA XII (hCA XII) | Selectivity index (SI) CA II/CA XII (hCA XII) | Ki (hCA XII) | Compound
1 | > 300 °C | – | – | – | – | – | – | – | – | – | CC(=O)Nc1cc(S(N)(=O)=O)ccc1OCc1cn(CCCCS(=O)(=O)O)nn1 (as salt: sodium) [Compound 50]
2 | > 300 °C | – | – | – | – | – | – | – | – | – | CCC(=O)Nc1cc(S(N)(=O)=O)ccc1OCc1cn(CCCCS(=O)(=O)O)nn1 (as salt: sodium) [Compound 51]
3 | 235 to 238 °C | – | – | – | – | – | – | – | – | – | C#CCNC(=S)Nc1ccc(S(N)(=O)=O)cc1 [Compound 29]
4 | > 300 °C | 83.5 nM | 3.2 nM | 429 nM | 2.3 | 0.09 | 35.9 nM | 12 | 0.48 | 6.7 nM | NS(=O)(=O)c1ccc(-c2cn(CCCS(=O)(=O)[O-])nn2)cc1.[Na+] [Compound 30, Sodium 3-(4-(4-sulfamoylphenyl)-1H-1,2,3-triazol-1-yl)propane-1-sulfonate]
5 | – | 7690 nM | 263 nM | 3560 nM | – | 3.2 | 82.5 nM | – | 6.5 | 40.6 nM | CC(=O)Nc1cc(S(N)(=O)=O)ccc1OCc1cn(CCCCS(=O)(=O)O)nn1 [Compound 50]
6 | – | 3650 nM | 39.9 nM | > 10000 nM | – | – | 236 nM | – | – | 7.3 nM | CCC(=O)Nc1cc(S(N)(=O)=O)ccc1OCc1cn(CCCCS(=O)(=O)O)nn1 [Compound 51]
7 | – | 651 nM | 332 nM | 636 nM | – | – | 133 nM | – | – | 31.3 nM | Sodium 3-(4-((3-(4-sulfamoylbenzyl)ureido)methyl)-1H-1,2,3-triazol-1-yl)butane-1-sulfonate [Compound 46]
8 | – | 82.3 nM | 41.3 nM | 473 nM | – | – | 68.1 nM | – | – | 64 nM | Sodium 3-(4-((3-(4-sulfamoylphenethyl)ureido)methyl)-1H-1,2,3-triazol-1-yl)butane-1-sulfonate [Compound 47]
9 | – | 62.4 nM | 5.8 nM | 557 nM | – | – | 8.8 nM | – | – | 31.5 nM | Sodium 3-(4-((3-(4-sulfamoylphenyl)thioureido)methyl)-1H-1,2,3-triazol-1-yl)butane-1-sulfonate [Compound 48]
10 | – | 496 nM | 41.1 nM | 150 nM | 1.3 | 0.11 | 372 nM | 14 | 1.2 | 33.6 nM | Sodium 3-(4-((3-(4-sulfamoylphenyl)ureido)methyl)-1H-1,2,3-triazol-1-yl)butane-1-sulfonate [Compound 45]
11 | – | 91.9 nM | 18.8 nM | 4540 nM | – | – | 32.2 nM | – | – | 53.2 nM | Sodium 3-(4-((4-(3-(4-sulfamoylphenyl)ureido)phenoxy)methyl)-1H-1,2,3-triazol-1-yl)butane-1-sulfonate [Compound 49]
12 | – | 168 nM | 22.5 nM | 651 nM | 3.3 | 0.44 | 50.7 nM | 5.2 | 0.70 | 32.2 nM | Sodium 3-(4-((4-sulfamoylbenzamido)methyl)-1H-1,2,3-triazol-1-yl)butane-1-sulfonate [Compound 44]
13 | – | 96.8 nM | 29.5 nM | 750 nM | 1.6 | 0.49 | 60.2 nM | 4.1 | 1.2 | 23.1 nM | Sodium 3-(4-((4-sulfamoylphenoxy)methyl)-1H-1,2,3-triazol-1-yl)butane-1-sulfonate [Compound 42]
